The test system of series [1] is DLD-1 Parental (HD PAR-008). Briefly: Anti-proliferation assay 144 h (ATPlite). It counts as cell-based. Conditions: Homo sapiens, 144 h proliferation assay, * = value should be considered as approximate, read-out: Relative IC50, DLD-1 Parental. As to the method: (§1) The sensitivity of DLD-1 Parental and BRCA2−/− isogenic cell lines Compound I and Compounds 1 and 7-10 were evaluated in 144 h proliferations assays. Cells were seeded into 384-well plates in McCoy's 5A medium supplemented with 10% FBS at the seeding densities indicated below and allowed to adhere overnight prior to addition of compound or vehicle control. Compounds were weighed out and stock solutions in DMSO were made immediately prior to treatment of cells. Serial dilutions of compounds were prepared in DMSO and diluted in media before being added to cells in quadruplicate to give the final concentrations indicated on graphs (10 μM top concentration, 9-point semi-log dilution series, 0.2% DMSO final concentration for all treatments). Cells were incubated with compounds for 144 h at 37° C., 5% C02 in a humidified atmosphere. At the assay endpoint, ATPlite (Perkin Elmer) reagent was added at a volume equal to the volume of cell culture medium already present in each well and the plates processed as per the manufacturer's instructions. Media only background values were subtract and ted and the data was analyzed using a 4-parameter logistic equation in GraphPad Prism. DLD-1 Parental (HD PAR-008) DLD-1 BRCA2−/− (HD 105-007) used.
(In general: ATP-based viability assays read luminescence as a measure of living cells.)

Series [2] concerns DLD-1 BRCA2−/− (HD 105-007). Briefly: Anti-proliferation assay 144 h (ATPlite). It counts as cell-based. Conditions: for Fold Sensitivity of BRCA2^-/- line: BRCA2^-/- line relative to DLD-1 Parental line; for Fold Sensitivity of BRCA2^-/- line / IC50: 144 h proliferation assay; for IC50: Homo sapiens, DLD-1, ATPlite, read-out: Relative IC50, DLD-1 BRCA2^-/-. As to the method:
as §1

The nature of series [3]: Stability of stock solutions and of spiked human plasma (LC/MS/MS method validation). Particulars: refrigeration (2° C. to 8° C.). It counts as physicochemical. As to the method: A reference standard stock solution of Compound I was prepared by weighing the reference standard and dissolving it in a solution of 50:50:0.1 (v/v) mixture of ACN:deionized water:formic acid, followed by vortex-mixing and sonication. This stock solution was used for preparation of the calibration standards. Another stock solution of Compound I was prepared following the same procedure and was used for preparation of the QC samples. Both stock solutions were prepared previously and stored at refrigeration (2° C. to 8° C.) prior to use on the day of assay. […] Both solutions were used within the established stability timeframe.
The internal standard stock solution was previously prepared by weighing Compound A (2-(4-Methyl-piperazin-1-yl)-5-oxo-5H-7-thia-1,11b-diaza-benzo[c]fluorene-6-carboxylic acid (5-methyl-pyrazin-2-ylmethyl)-amide) and dissolving it in a solution of 50:50:0.1 (v/v) mixture of ACN:deionized water:formic acid. This stock solution was stored at refrigeration (2° C. to 8° C.) prior to use. […] This solution was used within the established stability timeframe. On the day of assay, this solution was further diluted with a solution of 50:50:0.1 (v/v) mixture of ACN:deionized water:formic acid into a solution for spiking.
This assay method was based on a nominal quantitation range of 5.00 ng/mL to 5000 ng/mL. Validation results met their acceptance criteria for the assessments of calibration range, assay accuracy and precision, hemolysis matrix effects, lipidemic matrix effects, selectivity and specificity, dilution integrity, and assay ruggedness with respect to changing analysts and instrument, and over the run time anticipated for a prospective test sample run. Chromatographic carryover was not observed. A 6-minute assay run time was validated. […] (−63° C. to −77° C.) and following 4 cycles of freeze/thaw.

The structures appear in SMILES notation.

For `CN1CCCN(c2ccc3c(=O)c(C(N)=O)c4sc5ccccc5n4c3n2)CC1` [Compound 1, 2-(4-methyl-1,4-diazepan-1-yl)-5-oxo-5H-benzo[4,5]thiazolo[3,2-a][1,8]naphthyridine-6-carboxamide], in series [1], the IC50 is 1880 nM. Besides, the “sensitivity of the BRCA2 null line relative to the parental line (in words)” value in series [2] (144 h) was “extremely sensitive”. Moreover, in series [2], the “Fold Sensitivity of BRCA2^-/- line” value amounted to 400 and the IC50 was found to be 4.7 nM.

Regarding `Cc1cnc(CNC(=O)c2c(=O)c3ccc(N4CCCNCC4)nc3n3c2sc2ccccc23)cn1` [Compound 7, 2-(1,4-diazepan-1-yl)-N-((5-methylpyrazin-2-yl)methyl)-5-oxo-5H-benzo[4,5]thiazolo[3,2-a][1,8]naphthyridine-6-carboxamide], in series [1], the IC50 is approximately 12000 nM. In series [2], the “Fold Sensitivity of BRCA2^-/- line” value is on record as 21 and the IC50 is 560 nM.

As to `CN1CCCN(c2ccc3c(=O)c(C(=O)NCCCN4CCCCCC4=O)c4sc5ccccc5n4c3n2)CC1` [Compound 8, 2-(4-methyl-1,4-diazepan-1-yl)-N-(3-(2-oxoazepan-1-yl)propyl)-5-oxo-5H-benzo[4,5]thiazolo[3,2-a][1,8]naphthyridine-6-carboxamide], the IC50 in series [1] amounted to 530 nM. Moreover, in series [2], the “Fold Sensitivity of BRCA2^-/- line” value is listed as 74 and the IC50 worked out at 7.2 nM.

With `Cc1cnc(CNC(=O)c2c(=O)c3ccc(N4CCC[N+](C)([O-])CC4)nc3n3c2sc2ccccc23)cn1` (centres unmarked) [Compound 9, 2-(4-methyl-4-oxidodiazepan-4-ium-1-yl)-N-((5-methylpyrazin-2-yl)methyl)-5-oxo-5H-benzo[4,5]thiazolo[3,2-a][1,8]naphthyridine-6-carboxamide], the IC50 in series [1] is approximately 8780 nM. In series [2], the “Fold Sensitivity of BRCA2^-/- line” value is listed as 5.5 and the IC50 was 1590 nM.

In the case of `Cc1cnc(C(=O)NC(=O)c2c(=O)c3ccc(N4CCCN(C)CC4)nc3n3c2sc2ccccc23)cn1` [Compound 10, 2-(4-methyl-1,4-diazepan-1-yl)-N-((5-methylpyrazin-2-yl)carbonyl)-5-oxo-5H-benzo[4,5]thiazolo[3,2-a][1,8]naphthyridine-6-carboxamide], the IC50 in series [1] stood at 1580 nM. In series [2], the “Fold Sensitivity of BRCA2^-/- line” value is 2.5 and the IC50 came to 620 nM.

For the compound `Cc1cnc(CNC(=O)c2c(=O)c3ccc(N4CCN(C)CC4)nc3n3c2sc2ccccc23)cn1` [Compound A, 2-(4-Methyl-piperazin-1-yl)-5-oxo-5H-7-thia-1,11b-diaza-benzo[c]fluorene-6-carboxylic acid (5-methyl-pyrazin-2-ylmethyl)-amide, reference compound], the “stock solution stable (50:50:0.1 ACN:deionized water:formic acid)” value in series [3] was 384 days.

The record behind these values is patent US11524012B1, “Quinolone analogs and their salts, compositions, and method for their use” (Senhwa Biosciences, Inc., priority 2018, dated 2022).
